Entries after “also recorded” stand apart in the source; their conditions may differ. Like-named read-outs stand apart in the source and are kept apart here.
How the values were obtained:
[1] = tested on: LPS mediated TNFα stimulation of rat macrophages / spleen cells; assay: Rat in vitro LPS model; format: cell-based; conditions: 1 μg/ml, LPS 20 hours, FIG. 37
Method: Rat or mouse peritoneal or spleen cell suspensions were prepared from female Lewis rats (Harlan) or BalB/cA mice (Taconic). Human mononuclear cells were isolated from buffycoats (Skejby University Hospital) as described above. The purified cells were suspended in RPMI medium supplemented with 10% FCS and 2 mM L-glutamine and cultured (2×10^5 per well) overnight in 96-well flat bottomed plates (125 μl per well) at 37° C. and 5% CO2. Glucocorticoid conjugates (Example 8), free glucocorticoids or PBS were serial diluted in supplemented RPMI medium and added (100 μl) to the overnight cell cultures at final concentrations ranging from 1-10^−7 μg glucocorticoid/ml. After incubation for a specific time ranging from 30 min-24 hours, 150 μl supernatant was carefully aspirated and 150 μl supplemented RPMI medium added to the wells before further incubation overnight. Each incubation condition was tested in duplicates or triplicates. After 16-20 hours, the cells were challenged with lipopolysaccharide (LPS) (250 ng/ml) for 4 hours before supernatant was aspirated from each well and frozen at -20° C.

[2] = tested on: collagen-induced arthritis; conditions: for body weight after initiation of treatment: FIG. 47; for day of disease onset: mean±SD; for thymus weight compared to vehicle: at sacrifice
Method: The effect of dexamethasone on arthritis development in the rat CIA model was tested at three dosages (0.01, 0.1 and 1 mg/kg). Dexamethasone was administered intravenously on day 10 (day of disease onset), 13, 16 and 19. […] Treatment with vehicle (PBS/2.5% EtOH) served as negative control. Rats were sacrificed 21 days after immunization.
Collagen arthritis was induced in 9 weeks old female Lewis rats using a two-step immunization protocol. On day 0, all mice were immunized by intradermal injection of 1 mg/ml bovine type II collagen emulsified in Incomplete Freund's adjuvant at several sites at the back. Arthritis development was accelerated by an intradermal boost in the back and tail-base with 100 Sg bovine type II collagen in IFA on day 7. In order to perform immunization and intradermal boost, rats were anesthetized by inhalation of 3-4% isoflurane in a mixture of oxygen and N2O.
Rats were evaluated 6 times per week (once during weekends) for arthritis severity using a macroscopic scoring system of 0-4 for each paw as detailed below: • 0=no signs of arthritis • 0.5=unloading of the paw and/or light redness of ankle joint • 1=redness and mild swelling of the ankle joint • 2=redness and swelling of paw • 3=severe redness and swelling of entire paw including digits • 4=maximally swollen paw, often involvement of multiple joints and extending towards knee joint.
The total clinical score of an individual rat is defined as the sum of the clinical scores of all four paws for each day. At the end of the study, the cumulative arthritis score was calculated for each rat. This cumulative arthritis score is defined as the sum of the total clinical scores obtained from day 0 till day 21.
The day of disease is defined as the first day of three consecutive days on which a total arthritis score of more than 0 was observed.
The swelling of the hind paws was measured during weekdays with a laser scan micrometer (Mitutoyo, LSM-503S/6200). At the end of the study, the cumulative paw swelling was calculated for each rat as follows: a baseline value was determined by averaging the paw thickness values of day 0-9 when no signs of arthritis were visible. Next, increase in paw thickness was calculated by subtracting the baseline value from the paw thickness values obtained on day 10-21 (delta value). Cumulative paw swelling is defined as the sum of the delta paw thickness values from day 10 till 21.
Spleen, thymus and liver were isolated and weighed at sacrifice. Weights were normalized for body weight.
Collagen-induced arthritis (CIA) was induced in female Lewis rats (9 weeks of age) by intradermal injection of approximately 1 mg bovine type II collagen (Chondrex) emulsified in Incomplete Freund's adjuvant (IFA). The rats were immunized at several sites at the back under isoflurane anaesthesia (day 0) and boosted intradermal at the back and tail-base with 100 μg bovine type II collagen in IFA at day 7. The rats were scored 6 times per weeks for clinical signs of arthritis. Clinical severity of CIA was determined by swelling of individual joints and the number of affected joints in the front and rear paws. Each paw was scored from 1 to 4, so the maximum clinical score, including all four paws was 16.
A total of 20 rats were divided into five treatment groups (4 rats each). […] Changes in ankle size and body weight were monitored during the treatment process. On day 21, all animals were sacrificed and joint tissue, spleen, liver and thymus were dissected.

[3] = tested on: LPS mediated TNFα stimulation; assay: Rat in vivo LPS model; set-up: species or system Lewis rats
[4] = tested on: LPS mediated TNFα stimulation; conditions: serum 2 hours post LPS challenge, FIG. 42

Compound: C[C@@H]1C[C@H]2[C@@H]3CCC4=CC(=O)C=C[C@]4(C)[C@@]3(F)[C@@H](O)C[C@]2(C)[C@@]1(O)C(=O)CO [dexamethasone]
- TNFα concentration higher in supernatants of macrophages stimulated without the agent (ED2 or PBS) [1]: approximately 10 fold
- cumulative arthritis score reduced with respect to the vehicle group ([2]; 0.01 mg/kg): 39%
- day on which disease incidence of 100% was reached ([2]; 0.01 mg/kg): 14 days
- body weight after initiation of treatment ([2]; 0.01 mg/kg): a certain degree of body weight loss
- cumulative arthritis score reduced with respect to the vehicle group ([2]; 0.1 mg/kg): 69%
- day of disease onset ([2]; 0.1 mg/kg i.v. day 10, 13, 16, 19): 13.8 ± 1.0 days
- thymus weight compared to vehicle ([2]; 0.1 mg/kg): significantly decreased; also recorded: significantly lower
- cumulative arthritis score reduced with respect to the vehicle group ([2]; 1 mg/kg): 91%
- day of disease onset ([2]; 1 mg/kg i.v. day 10, 13, 16, 19): 18.3 ± 2.1 days
- thymus weight compared to vehicle ([2]; 1 mg/kg): significantly decreased
- spleen and liver weights compared to vehicle ([2]; 0.01, 0.1 and 1 mg/kg groups): No significant differences
- body weight after initiation of treatment ([2]; 0.01, 0.1 and 1 mg/kg groups): decreased gradually
- spleen and thymus weight compared with rats injected with ED2-dexamethasone ([3]; 2 days post LPS injection, FIG. 39B and C): significantly lower
- level of TNFα lower compared to vehicle ([3]; i.v. 20 hours before LPS, serum 2 hours after LPS, FIG. 39A): 2 fold
- TNFα level lower compared to vehicle [4]: 2 fold
